Measured values reported in patent US9981983B2, “Thienopyranones as kinase inhibitors” (SignalRx Pharmaceuticals, Inc., priority 2008, dated 2018).

Experiments:
pAKT in H1299 cells = assay: pAKT status DM50, H1299; type: cell-based; details: Homo sapiens, NCI-H1299; H1299, non-small cell lung cancer
Experimental: PC3 cells were obtained from the American Type Culture Collection (ATCC, Manassas, Va., Cat.# CRL-1435). Two million cells from the prostate cancer line PC3 were placed into 6 cm culture dishes and allowed to grow in complete RPMI 1640 media (Invitrogen, Carlsbad, Calif., Cat.#22400-105) with 10% fetal bovine serum (Invitrogen, Carlsbad, Calif., Cat.#10438-026). After this time period the cells were serum starved for 5 hours followed by application of the test compound. Test compound was added as a DMSO (dimethyl sulfoxide) solution such that the final DMSO concentration in the cell media was less than or equal to 0.2% by volume After 30 minutes of exposure the growth factor stimulant, human IGF-1 (PeproTech, Inc., Rocky Hill, N.J., Cat.#100-11), was added to a final concentration of 0.1 μg/ml in each well. After 30 minutes of IGF-1 exposure, cells were removed from the media and cell lysates were prepared using RIPA Lysis buffer (Upstate, Lake Placid, N.Y., Cat.#20-188), keeping on ice. The pAKT serine 473 level was measured in duplicate samples of the cell lysates using commercially available assays such as the Pathscan® Sandwich ELISA kit for Ser473 pAKT (Cell Signaling, Danvers, Mass., Cat.#7160). A SpectraMax Plus spectrophotometric plate reader (Molecular Devices, Sunnydale, Calif.) was used to measure the optical density signal for pAKT at 450 nm (OD450 nm). The pAKT OD450 nm readings were normalized by total protein amount in the cell lysates determined by standard methods.
Concentrations of test compounds required to inhibit IGF stimulated pAKT levels to 50% of maximum levels in PC3 cells (termed DM50 for decreased maximum 50%) were calculated by inputting the dose responses in the software package GraphPad Prism4 (GraphPad Software, Inc., San Diego, Calif.).
Several other cancer cell lines were obtained from ATCC and grown according to the supplier's recommendations and treated with test compounds. DM50 values listed in Table 6 below were obtained by the methods described in Example A: […]

U87MG (Brain) = assay: Cell proliferation MTS assay, U87MG; type: cell-based; details: Homo sapiens, U-87 MG, 72 hours
Experimental: (§1) All cell lines were obtained from ATCC and cultured and plated according to ATCC recommendations. Cells were cultured in complete culture media containing 10% heat-inactivated fetal bovine serum (FBS, Mediatech, Inc.). For adherent cell lines, once cells reached 70% confluency, they were trypsinized and resuspended in phenol red free RPMI media (Mediatech, Inc.) plus 10% heat-inactivated FBS (assay buffer) and 100 μL aliquots were plated into each well of 96-well microtiter plates at a final density of 1,000-2,000 cells/well. Cells were incubated overnight at 37° C. in 5% CO2, and treated with test compounds on the next day. For suspension cell lines, cells were resuspended in assay buffer, plated into 96-well microtiter plates at a density of 10^4-10^5 cells/well/100 μL, and treatment was started on the same day. Cells were treated with vehicle (DMSO) and test compounds for 72 hours at concentration of 100, 70, 40, 20, 10, 5, 2.5, 1.25, 0.5 and 0.2 μM in four replicates at 37° C. in 5% CO2.

[1] = test system: HUVEC (Endothelial-noncancer); assay: Cell proliferation MTS assay, HUVEC; type: cell-based; details: Homo sapiens, 72 hours
Experimental: as §1

Panc-1 (Pancreas) = assay: Cell proliferation MTS assay, Panc-1; type: cell-based; details: Homo sapiens, 72 hours
Experimental: as §1

PC3 (Prostate) = assay: Cell proliferation MTS assay, PC3; type: cell-based; details: 72 hours
Experimental: as §1

[2] = Cell proliferation MTS assay, Hela; type: cell-based; details: Homo sapiens, 72 hours, read-out: IC50 Hela (Colon)
Experimental: as §1

786-O cells = assay: Cellular proliferation (Example B method), 786-O; type: cell-based; details: Homo sapiens, 786-0, renal cell carcinoma
Experimental: PC3 cells were obtained from the American Type Culture Collection (ATCC, Manassas, Va., Cat.# CRL-1435) Two thousand cells from the prostate cancer line PC3 were placed in 50 μL of complete RPMI 1640 media (Invitrogen, Carlsbad, Calif., Cat.#22400-105) with 10% fetal bovine serum (Invitrogen, Carlsbad, Calif., Cat.#10438-026) into each well of 96 well cell culture plates in a hexaplicate sampling pattern. A 50 μL aliquot of test compound (prepared from stock test compounds in DMSO diluted into media) was added to the appropriate well such that the final concentrations of test compound were 200, 40, 8, 1.6, 0.32, 0.064, 0.0128, 0.00256, and 0 μM and the final DMSO concentration was less than or equal to 0.2%.
The plates were incubated for 72 hours 37° C. in an atmosphere of 5% CO2. At the end of this time a 10 μL aliquot of WST solution (Roche Applied Science, Mannheim, Germany) was added into each of the wells. Cells were exposed to the WST solution for 4 hours. A SpectraMax Plus spectrophotometric plate reader (Molecular Devices, Sunnydale, Calif.) was then used to measure the optical density at 450 nm (OD450 nm). Sigmoidal curves were drawn for the dose responses and IC50 values were calculated using the software package GraphPad Prism4 (GraphPad Software, Inc., San Diego, Calif.).
Several other cancer cell lines were obtained from ATCC and grown according to their recommendations and treated with test compounds to obtain the concentration of test compound that inhibited the cellular proliferation by 50% of no-treatment controls. These IC50 values (μM) are listed in Table 7 below obtained by the methods described in Example B: […]

[3] = test system: 786-0 renal cell carcinoma xenograft; assay: 786-0 renal cell carcinoma xenograft mouse model; type: in vivo, nude mice; details: ip, 3×/wk for 4 weeks
Experimental: To determine if Cpd 9 has anti-tumor effects, an in vivo study was conducted in a 786-0 renal cell carcinoma xenograft model, 786-0 cells (2×10^6) were inoculated subcutaneously into nude mice in the flank area and tumor growth was monitored with calipers via external measurements. Tumor volume was calculated using the formula volume=(length×width^2)/2. When the average tumor volume reached 400 mm^3, mice were randomly divided into 2 groups and treated with either DMSO (control) or Cpd 9 (25 mg/kg, ip) three times weekly (M, W, F) for two weeks.
To determine if Cpd 28 has anti-tumor effects, an in vivo study was conducted in a 786-0 renal cell carcinoma xenograft model, 786-0 cells (2×10^6) were inoculated subcutaneously into nude mice in the flank area and tumor growth was monitored with calipers via external measurements. Tumor volume was calculated using the formula volume=(length×width^2)/2. Treatment was started when tumors reached an average volume of 300 mm^3. […] DMSO was used as control since this was the vehicle the compounds were dissolved in. Tumor size was monitored twice weekly and body weight was monitored once weekly. Means and standard deviations were calculated and the Student t test method was used for statistical comparisons.

HT29 (Colon) = assay: Cell proliferation MTS assay, HT29; type: cell-based; details: Homo sapiens, HT-29, 72 hours
Experimental: as §1

IC50 (pAKT in H1299 cells): 0.886 µM
IC50 (U87MG (Brain)): 1.92 µM
IC50 (Panc-1 (Pancreas)): 18.4 µM
IC50 (PC3 (Prostate)): 1.22 µM
IC50 [2]: 2.1 µM
IC50 (786-O cells): 3.32 µM
IC50 (HT29 (Colon)): 2.4 µM
SMILES: O=c1cc(N2CCOCC2)oc2c(-c3ccc4c(c3)OCCO4)csc12 [Compound 28, 3-(2,3-dihydrobenzo[b][1,4]dioxin-6-yl)-5-morpholino-7H-thieno[3,2-b]pyran-7-one]
IC50 [1]: 1.23 µM
tumor growth inhibition compared to control ([3]; 25 mg/kg): 70%
body weight change or other abnormalities ([3]; 50 mg/kg): no significant body weight change or other abnormalities noted
tumor growth inhibition compared to control ([3]; 50 mg/kg): 81%
